Activity calls are given as the source filed them. The rule behind the calls is not given here.
Assays:
[1] = target: T1, ALK tyrosine kinase receptor (Homo sapiens, UniProt Q9UM73); assay: Inhibition of ALK phosphorylation in human KARPAS-299 cells at 1 uM incubated for 24 hrs followed by compound washout and measured after 72 hrs by Western blot analysis; assay type: cell-based
Target sequence in this assay (Q9UM73 19-1620 limits assumed): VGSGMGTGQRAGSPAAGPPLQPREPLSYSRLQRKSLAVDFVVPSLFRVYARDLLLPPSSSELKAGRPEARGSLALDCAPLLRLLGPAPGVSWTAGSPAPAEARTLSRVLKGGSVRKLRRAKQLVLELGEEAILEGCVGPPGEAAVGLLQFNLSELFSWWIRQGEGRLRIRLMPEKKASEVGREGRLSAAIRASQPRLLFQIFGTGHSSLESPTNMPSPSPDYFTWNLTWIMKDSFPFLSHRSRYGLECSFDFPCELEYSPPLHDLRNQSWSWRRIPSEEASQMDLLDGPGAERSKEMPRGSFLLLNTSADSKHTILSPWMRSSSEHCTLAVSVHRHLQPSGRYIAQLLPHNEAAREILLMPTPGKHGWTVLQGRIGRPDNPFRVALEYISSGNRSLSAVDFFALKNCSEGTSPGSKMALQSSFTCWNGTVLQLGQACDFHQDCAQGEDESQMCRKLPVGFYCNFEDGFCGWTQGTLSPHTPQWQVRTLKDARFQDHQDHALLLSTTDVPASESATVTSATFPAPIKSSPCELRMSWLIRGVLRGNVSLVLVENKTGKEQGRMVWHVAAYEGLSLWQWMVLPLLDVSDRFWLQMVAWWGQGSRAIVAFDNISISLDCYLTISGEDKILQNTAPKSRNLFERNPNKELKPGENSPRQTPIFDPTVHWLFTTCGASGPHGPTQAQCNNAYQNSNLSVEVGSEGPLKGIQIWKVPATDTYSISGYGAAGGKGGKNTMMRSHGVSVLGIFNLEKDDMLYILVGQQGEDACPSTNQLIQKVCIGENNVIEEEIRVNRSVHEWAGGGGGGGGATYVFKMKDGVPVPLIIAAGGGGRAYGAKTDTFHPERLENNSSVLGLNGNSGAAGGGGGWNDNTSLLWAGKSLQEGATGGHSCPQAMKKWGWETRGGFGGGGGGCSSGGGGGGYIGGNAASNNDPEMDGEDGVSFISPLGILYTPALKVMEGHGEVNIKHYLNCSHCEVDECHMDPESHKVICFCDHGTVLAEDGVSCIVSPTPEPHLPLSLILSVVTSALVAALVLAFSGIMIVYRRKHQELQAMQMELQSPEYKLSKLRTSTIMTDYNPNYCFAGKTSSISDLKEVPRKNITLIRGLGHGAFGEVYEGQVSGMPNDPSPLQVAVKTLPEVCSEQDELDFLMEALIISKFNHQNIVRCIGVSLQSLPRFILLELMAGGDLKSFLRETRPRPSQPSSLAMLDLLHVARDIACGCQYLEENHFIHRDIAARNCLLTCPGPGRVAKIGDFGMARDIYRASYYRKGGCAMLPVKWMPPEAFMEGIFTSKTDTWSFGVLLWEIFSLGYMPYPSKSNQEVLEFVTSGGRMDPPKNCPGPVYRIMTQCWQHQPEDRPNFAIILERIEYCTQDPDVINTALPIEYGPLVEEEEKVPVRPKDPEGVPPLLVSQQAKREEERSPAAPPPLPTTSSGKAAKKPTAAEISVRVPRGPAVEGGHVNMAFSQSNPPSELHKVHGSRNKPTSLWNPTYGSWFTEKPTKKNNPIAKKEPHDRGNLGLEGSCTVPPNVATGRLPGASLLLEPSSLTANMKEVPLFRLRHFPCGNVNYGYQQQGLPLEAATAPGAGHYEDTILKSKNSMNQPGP

KARPAS-299 [2] = assay: Downregulation of ALK protein expression in human KARPAS-299 cells at 1 uM incubated for 24 hrs by iTRAQ proteomics analysis; assay type: functional, cell-based
[3] = target: T2, Protein cereblon/ALK tyrosine kinase receptor/Echinoderm microtubule-associated protein-like 4 (Homo sapiens) (UniProt Q9UM73+Q9HC35+Q96SW2); assay: Protac activity at CRBN/EML4-ALK in human NCI-H3122 cells assessed as induction of EML4-ALK fusion protein degradation at 0.25 uM incubated for 16 hrs by Western blot analysis; assay type: cell-based
[4] = Tmax in Sprague-Dawley rat at 1 mg/kg, iv administered as single dose measured for 24 hrs by LC-MS/MS analysis; assay type: ADME, organism-based; conditions: in vivo
KARPAS-299 [5] = assay: Antitumor activity against human KARPAS-299 cells xenografted in NCG mouse assessed as tumor growth inhibition at 10 mg/kg, iv administered once every day for 3 weeks and measured every 3 days relative to control; assay type: functional; conditions: KARPAS-299, 504 h, read-out: TGI
[6] = target: T1, ALK tyrosine kinase receptor
[7] = Toxicity in NCG mouse xenografted with human KARPAS-299 cells assessed as lung damage at 10 mg/kg, iv administered once every day for 3 weeks by H and E staining based analysis; assay type: organism-based; conditions: in vivo, 504 h
[8] = Toxicity in NCG mouse xenografted with human KARPAS-299 cells assessed as kidney damage at 10 mg/kg, iv administered once every day for 3 weeks by H and E staining based analysis; assay type: organism-based; conditions: in vivo, 504 h
[9] = MRTlast in Sprague-Dawley rat at 1 mg/kg, iv administered as single dose measured for 24 hrs by LC-MS/MS analysis; assay type: ADME, organism-based; conditions: in vivo
BaF3 [10] = assay: Antiproliferative activity against crizotinib-resistant mouse BaF3 cells expressing EML-ALK L1152R mutant assessed as cell viability at 1 uM incubated for 72 hrs by Celltitre-Glo assay relative to control; assay type: functional; conditions: read-out: Activity
[11] = In vivo induction of degradation of ALK in human KARPAS-299 cells xenografted in NCG mouse assessed as reduction in ALK protein expression in tumor at 10 mg/kg, iv administered as single dose measured after 12 hrs by immunoblot analysis relative to control; assay type: functional; parameters: scale not given: the % may be the effect or the level left
[12] = Cmax in Sprague-Dawley rat at 50 mg/kg, ip administered as single dose measured for 24 hrs by LC-MS/MS analysis; assay type: ADME, organism-based; parameters: dose 50 mg/kg, time 24 hrs, route ip; conditions: in vivo
[13] = target: T1, ALK tyrosine kinase receptor; assay: Inhibition of ALK phosphorylation in human KARPAS-299 cells at 0.01 to 1 uM measured after 24 hrs by Western blot analysis; assay type: cell-based; conditions: dose 0.01-1 µM
Target sequence in this assay (Q9UM73 19-1620 limits assumed): as above

[14] = target: T2, Protein cereblon/ALK tyrosine kinase receptor/Echinoderm microtubule-associated protein-like 4 (Homo sapiens); assay: Protac activity at CRBN/EML4-ALK in human NCI-H3122 cells assessed as reduction in EML4-ALK fusion protein level at 100 nM measured after 16 hrs by Western blot analysis relative to control; assay type: cell-based; parameters: scale not given: the % may be the effect or the level left
[15] = AUC (0 to t) in Sprague-Dawley rat at 50 mg/kg, ip administered as single dose measured for 24 hrs by LC-MS/MS analysis; assay type: ADME, organism-based; parameters: dose 50 mg/kg, time 24 hrs, route ip; conditions: in vivo
KARPAS-299 [16] = assay: Downregulation of SESN2 protein expression in human KARPAS-299 cells at 1 uM incubated for 24 hrs by iTRAQ proteomics analysis; assay type: functional, cell-based
KARPAS-299 [17] = assay: Antiproliferative activity against ALK-positive human KARPAS-299 cells assessed as inhibition of cell proliferation measured after 72 hrs by MTT assay; assay type: functional, cell-based; conditions: KARPAS-299, 72 h
KARPAS-299 [18] = assay: Downregulation of jun-B protein expression in human KARPAS-299 cells at 1 uM incubated for 24 hrs by iTRAQ proteomics analysis; assay type: functional, cell-based
[19] = target: NPM/ALK (Nucleophosmin/ALK tyrosine kinase receptor) (Homo sapiens) (UniProt Q9UM73+P06748); assay: Induction of NPM-ALK degradation in human KARPAS-299 cells assessed as reduction in NPM-ALK protein level at 1 uM measured after 24 hrs by Western blot analysis; assay type: cell-based
[20] = target: T3, Protein cereblon/ALK tyrosine kinase receptor/Nucleophosmin (Homo sapiens) (UniProt Q9UM73+P06748+Q96SW2); assay: Protac activity at CRBN/NPM-ALK in human KARPAS-299 cells assessed as induction of NPM-ALK fusion protein degradation at 1 uM incubated for 24 hrs followed by compound washout and measured after 24 hrs by Western blot analysis; assay type: cell-based
KARPAS-299 [21] = assay: Antitumor activity against human KARPAS-299 cells xenografted in NCG mouse assessed as reduction in tumor volume at 25 to 50 mg/kg, ip administered once every day for 3 weeks and measured every 3 days; assay type: functional, organism-based; conditions: dose 25-50 mg/kg
[22] = Volume of distribution in Sprague-Dawley rat at 1 mg/kg, iv administered as single dose measured for 24 hrs by LC-MS/MS analysis; assay type: ADME, organism-based; conditions: in vivo
BaF3 [23] = assay: Antiproliferative activity against crizotinib-resistant mouse BaF3 cells expressing EML-ALK G1202R mutant assessed as cell viability at 1 uM incubated for 72 hrs by Celltitre-Glo assay relative to control; assay type: functional; conditions: read-out: Activity
[24] = target: T3, Protein cereblon/ALK tyrosine kinase receptor/Nucleophosmin (Homo sapiens); assay: Protac activity at CRBN/NPM-ALK in human KARPAS-299 cells assessed as induction of NPM-ALK fusion protein degradation at 2 uM incubated for 24 hrs by Western blot analysis; assay type: cell-based
[25] = target: T2, Protein cereblon/ALK tyrosine kinase receptor/Echinoderm microtubule-associated protein-like 4 (Homo sapiens); assay: Protac activity at CRBN/EML4-ALK in human NCI-H3122 cells assessed as induction of EML4-ALK fusion protein degradation at 0.1 uM incubated for 16 hrs by Western blot analysis relative to control; assay type: cell-based
[26] = target: T1, ALK tyrosine kinase receptor; assay: Inhibition of ALK phosphorylation in human KARPAS-299 cells at 100 nM measured after 48 hrs by Western blot analysis; assay type: cell-based
Target sequence in this assay (Q9UM73 19-1620 limits assumed): as above

[27] = target: Protein cereblon/ALK tyrosine kinase receptor/Nucleophosmin (Homo sapiens, UniProt P06748+Q96SW2+Q9UM73); assay: Protac activity at CRBN/NPM-ALK in human KARPAS-299 cells assessed as induction of NPM-ALK fusion protein degradation incubated for 48 hrs by Western blot analysis; assay type: cell-based
[28] = Half life in Sprague-Dawley rat at 50 mg/kg, ip administered as single dose measured for 24 hrs by LC-MS/MS analysis; assay type: ADME, organism-based; conditions: in vivo
BaF3 [29] = assay: Antiproliferative activity against crizotinib-resistant mouse BaF3 cells expressing EML-ALK L1196M mutant assessed as cell viability at 1 uM incubated for 72 hrs by Celltitre-Glo assay relative to control; assay type: functional; conditions: read-out: Activity
BaF3 [30] = assay: Antiproliferative activity against mouse BaF3 cells expressing wild type EML-ALK assessed as cell viability at 1 uM incubated for 72 hrs by Celltitre-Glo assay relative to control; assay type: functional; conditions: read-out: Activity
[31] = target: Protein cereblon/ALK tyrosine kinase receptor/Echinoderm microtubule-associated protein-like 4 (Homo sapiens, UniProt Q96SW2+Q9HC35+Q9UM73); assay: Protac activity at CRBN/EML4-ALK in human NCI-H3122 cells assessed as induction of EML4-ALK fusion protein degradation incubated for 16 hrs by Western blot analysis; assay type: cell-based

T2 sequence (Q96SW2 whole entry partner, the tested form may be a part): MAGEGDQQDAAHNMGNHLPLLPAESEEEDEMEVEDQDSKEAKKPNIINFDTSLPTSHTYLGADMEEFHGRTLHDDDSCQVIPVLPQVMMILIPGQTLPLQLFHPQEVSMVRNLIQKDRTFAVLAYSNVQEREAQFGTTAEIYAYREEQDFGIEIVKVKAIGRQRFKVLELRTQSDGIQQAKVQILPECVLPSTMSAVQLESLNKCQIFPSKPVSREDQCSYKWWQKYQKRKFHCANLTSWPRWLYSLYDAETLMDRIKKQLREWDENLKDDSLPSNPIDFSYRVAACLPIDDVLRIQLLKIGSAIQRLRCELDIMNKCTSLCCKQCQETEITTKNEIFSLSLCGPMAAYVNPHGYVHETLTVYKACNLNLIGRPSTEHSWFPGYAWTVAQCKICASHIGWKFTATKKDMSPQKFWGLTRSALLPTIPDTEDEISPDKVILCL
T2 sequence (Q9HC35 whole entry partner, the tested form may be a part): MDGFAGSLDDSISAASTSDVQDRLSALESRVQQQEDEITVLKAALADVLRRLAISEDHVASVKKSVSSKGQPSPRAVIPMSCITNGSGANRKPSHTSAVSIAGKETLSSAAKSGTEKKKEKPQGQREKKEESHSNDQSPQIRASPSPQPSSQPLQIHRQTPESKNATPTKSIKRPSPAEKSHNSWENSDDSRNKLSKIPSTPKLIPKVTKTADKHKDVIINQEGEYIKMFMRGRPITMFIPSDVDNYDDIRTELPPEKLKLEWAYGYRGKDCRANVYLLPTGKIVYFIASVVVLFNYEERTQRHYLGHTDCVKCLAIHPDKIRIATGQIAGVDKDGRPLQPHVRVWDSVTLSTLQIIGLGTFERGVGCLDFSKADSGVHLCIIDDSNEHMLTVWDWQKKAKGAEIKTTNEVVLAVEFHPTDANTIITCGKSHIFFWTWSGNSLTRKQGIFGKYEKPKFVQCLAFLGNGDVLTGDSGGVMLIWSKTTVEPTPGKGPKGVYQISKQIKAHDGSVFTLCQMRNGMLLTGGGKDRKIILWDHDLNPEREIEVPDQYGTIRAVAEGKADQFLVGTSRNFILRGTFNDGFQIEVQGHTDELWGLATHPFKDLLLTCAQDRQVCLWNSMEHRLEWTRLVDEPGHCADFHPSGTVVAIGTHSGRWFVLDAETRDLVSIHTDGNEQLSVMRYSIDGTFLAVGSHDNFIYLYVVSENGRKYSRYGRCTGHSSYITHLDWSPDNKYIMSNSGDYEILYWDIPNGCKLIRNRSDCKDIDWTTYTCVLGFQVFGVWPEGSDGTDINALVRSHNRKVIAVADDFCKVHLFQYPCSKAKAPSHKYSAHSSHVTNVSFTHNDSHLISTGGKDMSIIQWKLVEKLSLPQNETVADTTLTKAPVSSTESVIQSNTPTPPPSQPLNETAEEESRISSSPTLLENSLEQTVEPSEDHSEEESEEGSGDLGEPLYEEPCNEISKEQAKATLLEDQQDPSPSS
T2 sequence (Q9UM73 19-1620 limits assumed): as the sequence (Q9UM73 19-1620 limits assumed) above
T3 sequence (P06748 whole entry partner, the tested form may be a part): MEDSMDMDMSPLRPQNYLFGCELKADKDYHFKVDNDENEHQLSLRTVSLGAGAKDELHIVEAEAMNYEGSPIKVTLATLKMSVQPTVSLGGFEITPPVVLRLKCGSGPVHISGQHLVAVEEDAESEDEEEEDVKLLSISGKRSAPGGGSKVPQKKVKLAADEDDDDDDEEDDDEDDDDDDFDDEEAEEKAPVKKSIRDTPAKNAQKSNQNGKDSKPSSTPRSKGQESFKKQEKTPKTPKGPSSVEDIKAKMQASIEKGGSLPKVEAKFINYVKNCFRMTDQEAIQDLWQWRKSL
T3 sequence (Q96SW2 whole entry partner, the tested form may be a part): as the sequence (Q96SW2 whole entry partner, the tested form may be a part) above
T3 sequence (Q9UM73 19-1620 limits assumed): as the sequence (Q9UM73 19-1620 limits assumed) above
Sequence of NPM/ALK (Nucleophosmin/ALK tyrosine kinase receptor) (Homo sapiens) (P06748 whole entry partner, the tested form may be a part): as the sequence (P06748 whole entry partner, the tested form may be a part) above
Sequence of NPM/ALK (Nucleophosmin/ALK tyrosine kinase receptor) (Homo sapiens) (Q9UM73 19-1620 limits assumed): as the sequence (Q9UM73 19-1620 limits assumed) above

## CCc1cc2c(cc1N1CCN(C(=O)CNc3cccc4c3C(=O)N(C3CCC(=O)NC3=O)C4=O)CC1)C(C)(C)c1[nH]c3cc(C#N)ccc3c1C2=O (stereo unspecified)
[1]
  inhibition: Active
KARPAS-299 [2]
  Activity: Active
[3]
  Activity: Active
[4]
  Tmax: 1.8 min
KARPAS-299 [5]
  inhibition in vivo at 10 mg/kg: 75.8%
[6]
  IC50: 13600 nM
[7]
  Activity: Non-Toxic
[8]
  Activity: Non-Toxic
[9]
  MRT last at 24 h: 4.2 min
BaF3 [10]
  viability at 1 µM: 0.1%
[11]
  Activity: >85%
[12]
  Cmax: 109 ng/mL
[13]
  inhibition: Active
[14]
  Activity: 22.6%
[15]
  AUC(0-t) at 24 h: 546 ng·h/mL
KARPAS-299 [16]
  Activity: Active
KARPAS-299 [17]
  IC50: 42 nM
KARPAS-299 [18]
  Activity: Active
[19]
  Activity: Active
[20]
  Activity: Active
KARPAS-299 [21]
  Activity: Active
[22]
  Vd: 3.89 L/kg
BaF3 [23]
  viability at 1 µM: 77.6%
[24]
  Activity: Active
[25]
  Activity: 50.3%
[26]
  inhibition: Active
[27]
  EC50: 116 nM
[28]
  half-life: 1830 min
BaF3 [29]
  viability at 1 µM: 6.1%
BaF3 [30]
  viability at 1 µM: 0.1%
[31]
  EC50: 27.4 nM
